The source made the active and inactive calls. How the calls were made is not given here.
Tested on: CCRIS mutagenicity, Ames/micronucleus/aberration tests
Experiment: CCRIS mutagenicity studies

Measured: mutagenic call

CCN(CC)c1ccccc1
inactive: Test System: AMES SALMONELLA TYPHIMURIUM, Strain/Indicator: TA97, Metabolic Activation: HAMSTER, LIVER, S-9, AROCLOR 1254 (10 OR 30%), Method: PREINCUBATION inactive; negative | Test System: AMES SALMONELLA TYPHIMURIUM, Strain/Indicator: TA97, Metabolic Activation: NONE, Method: PREINCUBATION inactive; negative | Test System: AMES SALMONELLA TYPHIMURIUM, Strain/Indicator: TA97, Metabolic Activation: RAT, LIVER, S-9, AROCLOR 1254 (10 OR 30%), Method: PREINCUBATION inactive; negative | Test System: AMES SALMONELLA TYPHIMURIUM, Strain/Indicator: TA98, Metabolic Activation: HAMSTER, LIVER, S-9, AROCLOR 1254 (10 OR 30%), Method: PREINCUBATION inactive; negative | Test System: AMES SALMONELLA TYPHIMURIUM, Strain/Indicator: TA98, Metabolic Activation: HAMSTER, LIVER, S-9, PHENOBARBITAL AND BETA-NAPHTHOFLAVONE, Method: PREINCUBATION inactive; negative | Test System: AMES SALMONELLA TYPHIMURIUM, Strain/Indicator: TA98, Metabolic Activation: NONE, Method: PREINCUBATION inactive; negative | Test System: AMES SALMONELLA TYPHIMURIUM, Strain/Indicator: TA98, Metabolic Activation: RAT, LIVER, S-9, AROCLOR 1254 (10 OR 30%), Method: PREINCUBATION inactive; negative | Test System: AMES SALMONELLA TYPHIMURIUM, Strain/Indicator: TA100, Metabolic Activation: HAMSTER, LIVER, S-9, AROCLOR 1254 (10 OR 30%), Method: PREINCUBATION inactive; negative | Test System: AMES SALMONELLA TYPHIMURIUM, Strain/Indicator: TA100, Metabolic Activation: HAMSTER, LIVER, S-9, PHENOBARBITAL AND BETA-NAPHTHOFLAVONE, Method: PREINCUBATION inactive; negative | Test System: AMES SALMONELLA TYPHIMURIUM, Strain/Indicator: TA100, Metabolic Activation: NONE, Method: PREINCUBATION inactive; negative | Test System: AMES SALMONELLA TYPHIMURIUM, Strain/Indicator: TA100, Metabolic Activation: RAT, LIVER, S-9, AROCLOR 1254 (10 OR 30%), Method: PREINCUBATION inactive; negative | Test System: AMES SALMONELLA TYPHIMURIUM, Strain/Indicator: TA102, Metabolic Activation: HAMSTER, LIVER, S-9, PHENOBARBITAL AND BETA-NAPHTHOFLAVONE, Method: PREINCUBATION inactive; negative | Test System: AMES SALMONELLA TYPHIMURIUM, Strain/Indicator: TA102, Metabolic Activation: NONE, Method: PREINCUBATION inactive; negative | Test System: AMES SALMONELLA TYPHIMURIUM, Strain/Indicator: TA104, Metabolic Activation: HAMSTER, LIVER, S-9, PHENOBARBITAL AND BETA-NAPHTHOFLAVONE, Method: PREINCUBATION inactive; negative | Test System: AMES SALMONELLA TYPHIMURIUM, Strain/Indicator: TA104, Metabolic Activation: NONE, Method: PREINCUBATION inactive; negative | Test System: AMES SALMONELLA TYPHIMURIUM, Strain/Indicator: TA1535, Metabolic Activation: HAMSTER, LIVER, S-9, AROCLOR 1254 (10 OR 30%), Method: PREINCUBATION inactive; negative | Test System: AMES SALMONELLA TYPHIMURIUM, Strain/Indicator: TA1535, Metabolic Activation: HAMSTER, LIVER, S-9, PHENOBARBITAL AND BETA-NAPHTHOFLAVONE, Method: PREINCUBATION inactive; negative | Test System: AMES SALMONELLA TYPHIMURIUM, Strain/Indicator: TA1535, Metabolic Activation: NONE, Method: PREINCUBATION inactive; negative | Test System: AMES SALMONELLA TYPHIMURIUM, Strain/Indicator: TA1535, Metabolic Activation: RAT, LIVER, S-9, AROCLOR 1254 (10 OR 30%), Method: PREINCUBATION inactive; negative | Test System: AMES SALMONELLA TYPHIMURIUM, Strain/Indicator: TA1537, Metabolic Activation: HAMSTER, LIVER, S-9, PHENOBARBITAL AND BETA-NAPHTHOFLAVONE, Method: PREINCUBATION inactive; negative | Test System: AMES SALMONELLA TYPHIMURIUM, Strain/Indicator: TA1537, Metabolic Activation: NONE, Method: PREINCUBATION inactive; negative | Test System: E. COLI, Strain/Indicator: WP2UVRA/PKM101, Metabolic Activation: HAMSTER, LIVER, S-9, PHENOBARBITAL AND BETA-NAPHTHOFLAVONE, Method: PREINCUBATION inactive; negative | Test System: E. COLI, Strain/Indicator: WP2UVRA/PKM101, Metabolic Activation: NONE, Method: PREINCUBATION inactive; negative | Test System: E. COLI, Strain/Indicator: WP2UVRA, Metabolic Activation: HAMSTER, LIVER, S-9, PHENOBARBITAL AND BETA-NAPHTHOFLAVONE, Method: PREINCUBATION inactive; negative | Test System: E. COLI, Strain/Indicator: WP2UVRA, Metabolic Activation: NONE, Method: PREINCUBATION inactive; negative | Test System: UDS RODENT HEPATOCYTES, Strain/Indicator: THY INCORP (NON-S-PHASE), Metabolic Activation: NONE, Method: AUTORADIOGRAPHY inactive; negative

Reference: PubChem BioAssay AID1259407 (Chemical Carcinogenesis Research Information System (CCRIS), 2018)
